According to ChEMBL document CHEMBL1201862, “PubChem BioAssay data set” (2004):
Activity calls are given as the source filed them.

Legend:
[1] = molecular target: T1, Short transient receptor potential channel 4 (Mus musculus, UniProt Q9QUQ5); experiment: mouse TRPC4 channel activators, dose response, cell-based, HEK293 TRPC4/mu-opioid, Fluo-4 calcium (AID 434937); format: functional
T1 sequence (Q9QUQ5 whole entry): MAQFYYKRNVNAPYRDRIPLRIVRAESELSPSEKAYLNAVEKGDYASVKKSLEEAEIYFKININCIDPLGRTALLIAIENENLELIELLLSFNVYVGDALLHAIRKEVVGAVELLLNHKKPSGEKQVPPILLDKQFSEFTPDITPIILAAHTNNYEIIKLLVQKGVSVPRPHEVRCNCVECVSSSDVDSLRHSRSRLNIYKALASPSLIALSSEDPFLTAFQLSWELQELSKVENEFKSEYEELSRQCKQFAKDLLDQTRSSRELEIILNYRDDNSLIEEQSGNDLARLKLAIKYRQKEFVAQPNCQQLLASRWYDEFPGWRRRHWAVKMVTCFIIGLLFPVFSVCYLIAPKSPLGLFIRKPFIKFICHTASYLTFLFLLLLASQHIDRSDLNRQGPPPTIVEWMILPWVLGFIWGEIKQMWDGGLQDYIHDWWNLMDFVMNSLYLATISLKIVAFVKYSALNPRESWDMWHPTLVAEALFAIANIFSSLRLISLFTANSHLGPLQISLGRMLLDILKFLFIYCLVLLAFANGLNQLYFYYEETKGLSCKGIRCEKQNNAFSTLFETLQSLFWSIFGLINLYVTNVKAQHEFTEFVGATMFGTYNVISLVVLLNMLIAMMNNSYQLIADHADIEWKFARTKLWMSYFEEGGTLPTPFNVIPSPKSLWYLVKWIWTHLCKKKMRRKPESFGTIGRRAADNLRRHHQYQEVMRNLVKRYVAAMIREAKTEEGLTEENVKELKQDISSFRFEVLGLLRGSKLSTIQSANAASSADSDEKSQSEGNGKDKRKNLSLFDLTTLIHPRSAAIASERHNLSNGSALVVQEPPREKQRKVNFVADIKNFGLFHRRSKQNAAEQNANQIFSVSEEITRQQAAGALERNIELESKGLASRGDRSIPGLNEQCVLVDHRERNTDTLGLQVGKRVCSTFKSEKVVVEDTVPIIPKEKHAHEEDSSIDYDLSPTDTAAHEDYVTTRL

[2] = molecular target: T2, Rac GTPase-activating protein 1 (Homo sapiens, UniProt Q9H0H5); experiment: MgcRacGAP GTPase-activating activity inhibitors, confirmation, biochemical, ADP Hunter fluorescence, primary and confirmatory (AID 624330); format: functional
T2 sequence (Q9H0H5 whole entry): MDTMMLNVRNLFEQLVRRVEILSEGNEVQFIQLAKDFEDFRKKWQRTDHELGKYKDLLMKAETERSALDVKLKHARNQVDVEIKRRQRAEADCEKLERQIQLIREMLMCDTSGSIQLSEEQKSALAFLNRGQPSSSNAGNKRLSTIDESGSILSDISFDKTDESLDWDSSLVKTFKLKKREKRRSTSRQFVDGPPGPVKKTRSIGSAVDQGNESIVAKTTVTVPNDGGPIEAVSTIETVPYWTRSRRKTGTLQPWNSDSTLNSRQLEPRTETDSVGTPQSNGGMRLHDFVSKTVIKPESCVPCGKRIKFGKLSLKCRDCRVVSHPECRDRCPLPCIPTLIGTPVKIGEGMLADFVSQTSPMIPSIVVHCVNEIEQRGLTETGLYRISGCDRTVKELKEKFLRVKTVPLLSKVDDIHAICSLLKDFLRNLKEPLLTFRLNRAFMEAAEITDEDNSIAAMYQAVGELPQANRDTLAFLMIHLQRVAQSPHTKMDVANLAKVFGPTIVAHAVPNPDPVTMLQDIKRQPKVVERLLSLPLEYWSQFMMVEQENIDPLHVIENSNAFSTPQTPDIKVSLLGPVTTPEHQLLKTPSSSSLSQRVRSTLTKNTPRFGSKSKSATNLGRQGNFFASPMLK

Aminopeptidase N = molecular target: T3, Aminopeptidase N (Plasmodium falciparum FcB1/Columbia, UniProt O96935); experiment: P. falciparum M1AAP inhibitors, biochemical, fluorogenic H-Leu-NHMec substrate, 1536-well (AID 1445); set-up: species or system Plasmodium falciparum 3D7, 3D7
T3 sequence (O96935 whole entry): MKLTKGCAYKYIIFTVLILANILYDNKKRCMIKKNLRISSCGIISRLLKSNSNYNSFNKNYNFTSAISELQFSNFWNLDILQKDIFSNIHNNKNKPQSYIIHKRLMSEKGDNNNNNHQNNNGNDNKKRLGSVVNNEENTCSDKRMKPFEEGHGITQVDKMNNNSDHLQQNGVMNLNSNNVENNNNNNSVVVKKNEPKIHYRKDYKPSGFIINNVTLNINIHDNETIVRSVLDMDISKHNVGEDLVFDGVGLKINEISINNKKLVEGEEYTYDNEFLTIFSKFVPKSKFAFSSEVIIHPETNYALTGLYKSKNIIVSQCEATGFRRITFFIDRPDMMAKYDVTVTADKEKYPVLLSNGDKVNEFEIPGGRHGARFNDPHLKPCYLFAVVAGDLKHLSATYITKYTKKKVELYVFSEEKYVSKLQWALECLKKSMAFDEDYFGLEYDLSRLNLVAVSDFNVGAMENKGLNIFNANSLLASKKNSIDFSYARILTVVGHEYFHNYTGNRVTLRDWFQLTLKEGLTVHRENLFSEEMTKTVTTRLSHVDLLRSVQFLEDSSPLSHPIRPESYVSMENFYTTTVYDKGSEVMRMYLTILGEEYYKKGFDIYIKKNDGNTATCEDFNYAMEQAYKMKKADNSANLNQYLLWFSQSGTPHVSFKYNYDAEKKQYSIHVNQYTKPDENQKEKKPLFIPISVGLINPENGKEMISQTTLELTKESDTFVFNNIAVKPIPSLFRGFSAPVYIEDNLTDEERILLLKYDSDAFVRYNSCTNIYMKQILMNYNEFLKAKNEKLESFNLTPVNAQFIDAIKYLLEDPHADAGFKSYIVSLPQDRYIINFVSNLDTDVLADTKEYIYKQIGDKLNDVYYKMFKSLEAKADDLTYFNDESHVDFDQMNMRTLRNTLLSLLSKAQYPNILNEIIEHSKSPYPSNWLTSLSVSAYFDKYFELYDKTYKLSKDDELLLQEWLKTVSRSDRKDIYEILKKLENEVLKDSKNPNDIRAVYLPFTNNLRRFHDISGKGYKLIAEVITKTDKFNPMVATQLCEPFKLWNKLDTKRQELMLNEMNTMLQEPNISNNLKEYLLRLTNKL

Cytochrome P450 3A4 = Cytochrome P450 3A4 (Homo sapiens, UniProt P08684);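 further: CYP3A4 tested as one member of a cytochrome P450 panel screen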
Cytochrome P450 3A4, sequence (P08684 whole entry): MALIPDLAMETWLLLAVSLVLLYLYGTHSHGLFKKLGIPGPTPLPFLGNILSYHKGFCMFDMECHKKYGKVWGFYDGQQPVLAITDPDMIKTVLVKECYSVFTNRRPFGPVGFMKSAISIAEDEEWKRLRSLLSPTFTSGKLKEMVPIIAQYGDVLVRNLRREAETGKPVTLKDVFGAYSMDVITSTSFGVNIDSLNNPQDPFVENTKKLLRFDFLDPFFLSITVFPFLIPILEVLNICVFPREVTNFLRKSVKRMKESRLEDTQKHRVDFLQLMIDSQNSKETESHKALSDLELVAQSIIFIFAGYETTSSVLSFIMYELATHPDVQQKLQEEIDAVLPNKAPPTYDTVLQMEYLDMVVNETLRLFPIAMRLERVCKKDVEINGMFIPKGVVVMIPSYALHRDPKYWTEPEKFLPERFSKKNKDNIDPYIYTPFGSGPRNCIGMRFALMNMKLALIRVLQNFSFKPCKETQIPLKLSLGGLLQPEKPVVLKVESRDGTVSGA

Cytochrome P450 1A2 = molecular target: T4, Cytochrome P450 1A2 (Homo sapiens, UniProt P05177);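 further: PubChem cytochrome P450 panel assay, CYP1A2 panel member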
T4 sequence (P05177 whole entry): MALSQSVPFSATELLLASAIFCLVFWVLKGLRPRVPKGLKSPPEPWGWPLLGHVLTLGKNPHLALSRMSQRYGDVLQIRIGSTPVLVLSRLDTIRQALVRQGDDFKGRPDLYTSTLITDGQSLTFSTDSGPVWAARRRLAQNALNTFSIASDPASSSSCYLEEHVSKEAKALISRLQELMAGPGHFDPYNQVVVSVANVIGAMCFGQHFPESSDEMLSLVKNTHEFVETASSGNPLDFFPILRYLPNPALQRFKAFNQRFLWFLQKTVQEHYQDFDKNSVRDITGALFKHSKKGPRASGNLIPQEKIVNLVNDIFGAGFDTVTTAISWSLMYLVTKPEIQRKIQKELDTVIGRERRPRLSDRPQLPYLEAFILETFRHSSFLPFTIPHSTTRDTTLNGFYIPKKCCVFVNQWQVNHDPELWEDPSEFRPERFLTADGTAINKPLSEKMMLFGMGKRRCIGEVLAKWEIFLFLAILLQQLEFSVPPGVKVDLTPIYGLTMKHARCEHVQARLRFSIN

Cytochrome P450 2C9 = Cytochrome P450 2C9 (Homo sapiens, UniProt P11712)
Cytochrome P450 2C9, sequence (P11712 whole entry): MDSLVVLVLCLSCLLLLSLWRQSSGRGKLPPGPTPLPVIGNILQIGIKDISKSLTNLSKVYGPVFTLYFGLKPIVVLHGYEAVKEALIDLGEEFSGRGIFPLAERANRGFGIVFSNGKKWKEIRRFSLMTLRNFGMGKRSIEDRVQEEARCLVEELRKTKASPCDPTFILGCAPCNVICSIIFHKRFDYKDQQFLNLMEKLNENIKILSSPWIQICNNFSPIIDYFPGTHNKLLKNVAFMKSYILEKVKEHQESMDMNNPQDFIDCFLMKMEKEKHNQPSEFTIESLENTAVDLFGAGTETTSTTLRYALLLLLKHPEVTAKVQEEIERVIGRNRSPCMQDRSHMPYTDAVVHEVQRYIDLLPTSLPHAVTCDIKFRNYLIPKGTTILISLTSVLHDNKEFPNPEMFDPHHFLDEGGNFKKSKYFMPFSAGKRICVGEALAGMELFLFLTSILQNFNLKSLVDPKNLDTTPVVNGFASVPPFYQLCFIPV

[3] = microbe, parasite or virus in culture; format: functional; conditions: Mycobacterium tuberculosis
[4] = molecular target: T5, Heat shock factor protein 1 (Mus musculus, UniProt P38532); experiment: inhibition of MG132-induced HSE-luciferase signal, confirmation, cell-based, NIH3T3, luminescence, dose retest (AID 2382); format: functional;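 further: NIH3T3 fibroblasts with HSF1-driven luciferase reporter stressed by proteasome inhibitor MG132; luminescence from HSF1-driven luciferase expression after 8 hours of MG132 stress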
T5 sequence (P38532 whole entry): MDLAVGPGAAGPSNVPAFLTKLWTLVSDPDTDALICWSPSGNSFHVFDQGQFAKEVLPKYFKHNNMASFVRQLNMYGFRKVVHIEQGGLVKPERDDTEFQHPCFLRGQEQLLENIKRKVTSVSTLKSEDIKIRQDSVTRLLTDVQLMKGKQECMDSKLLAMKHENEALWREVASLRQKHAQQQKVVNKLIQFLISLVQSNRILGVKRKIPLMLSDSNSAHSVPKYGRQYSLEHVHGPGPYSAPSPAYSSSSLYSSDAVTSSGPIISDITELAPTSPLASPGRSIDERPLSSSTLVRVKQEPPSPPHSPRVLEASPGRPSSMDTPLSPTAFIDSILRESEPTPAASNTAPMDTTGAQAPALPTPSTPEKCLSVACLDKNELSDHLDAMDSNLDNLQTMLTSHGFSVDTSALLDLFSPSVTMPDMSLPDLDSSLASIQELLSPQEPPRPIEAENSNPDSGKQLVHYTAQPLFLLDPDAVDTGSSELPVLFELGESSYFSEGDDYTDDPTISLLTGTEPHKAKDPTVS

[5] = NIH-3T3 fibroblast cytotoxicity, dose response, cytotoxicity control, cell-based, fluorescence, Alamar Blue, secondary assay (AID 2327); format: functional;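 further: NIH-3T3 mouse fibroblasts cultured with fluconazole at 8 µg/mL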
[6] = HepG2 cell cytotoxicity, dose response, cytotoxicity control for Shn3 inhibitor project, CellTiter-Glo, cherry-picked (AID 624134); format: functional, cell-based
[7] = control 3'UTR Renilla luciferase suppression, dose response, counter-screen for Shn3 inhibitor project, cell-based, Clone20-Shn3RL, cherry-picked (AID 624133); format: functional
[8] = C. albicans growth with fluconazole, confirmation, fluorescence, retest (AID 2467); format: functional, cell-based
[9] = Shn3 3'UTR reporter inhibitors, dose response, cell-based, Clone20 osteoblasts, firefly luciferase, cherry-picked (AID 624132); format: functional;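 further: firefly luciferase luminescence from reporter carrying the Shn3 3'UTR in osteoblasts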
[10] = molecular target: Heat shock protein HSP 90-alpha (Homo sapiens, UniProt P07900); format: functional, organism-based
[11] = THP-1 cell cytotoxicity, dose response, cytotoxicity control for non-replicating M. tuberculosis project (AID 489025); format: functional
Cytochrome P450 2C19 = Cytochrome P450 2C19 (Homo sapiens, UniProt P33261); experiment: Cytochrome panel assay with activity outcomes. Panel member name: p450-cyp2c19 Compounds with AC50 equal or less than 10 uM are considered active; format: functional; conditions: read-out: AC50
Cytochrome P450 2C19, sequence (P33261 whole entry): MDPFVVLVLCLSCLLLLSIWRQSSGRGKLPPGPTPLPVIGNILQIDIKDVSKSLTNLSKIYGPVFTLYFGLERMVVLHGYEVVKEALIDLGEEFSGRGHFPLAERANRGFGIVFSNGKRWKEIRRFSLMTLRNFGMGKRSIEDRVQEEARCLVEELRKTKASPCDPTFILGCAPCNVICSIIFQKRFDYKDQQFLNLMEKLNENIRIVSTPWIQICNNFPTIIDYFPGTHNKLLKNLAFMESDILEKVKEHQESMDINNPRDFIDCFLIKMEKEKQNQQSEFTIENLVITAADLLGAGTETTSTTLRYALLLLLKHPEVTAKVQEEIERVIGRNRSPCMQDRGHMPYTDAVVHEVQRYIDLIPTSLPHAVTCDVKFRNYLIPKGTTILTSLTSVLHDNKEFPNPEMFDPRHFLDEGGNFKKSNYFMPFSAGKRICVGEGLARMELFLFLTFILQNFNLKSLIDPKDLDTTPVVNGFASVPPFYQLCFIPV

Prothrombin = Prothrombin (Homo sapiens, UniProt P00734); experiment: Thrombin 1536 HTS Dose Response Confirmation. [Related pubchem assays: 1046 (Thrombin 1536 HTS; hits were confirmed in this assay)]; format: functional
Cytochrome P450 2D6 = Cytochrome P450 2D6 (Homo sapiens, UniProt P10635);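 further: CYP2D6 member of a cytochrome P450 panel assay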
Cytochrome P450 2D6, sequence (P10635 whole entry): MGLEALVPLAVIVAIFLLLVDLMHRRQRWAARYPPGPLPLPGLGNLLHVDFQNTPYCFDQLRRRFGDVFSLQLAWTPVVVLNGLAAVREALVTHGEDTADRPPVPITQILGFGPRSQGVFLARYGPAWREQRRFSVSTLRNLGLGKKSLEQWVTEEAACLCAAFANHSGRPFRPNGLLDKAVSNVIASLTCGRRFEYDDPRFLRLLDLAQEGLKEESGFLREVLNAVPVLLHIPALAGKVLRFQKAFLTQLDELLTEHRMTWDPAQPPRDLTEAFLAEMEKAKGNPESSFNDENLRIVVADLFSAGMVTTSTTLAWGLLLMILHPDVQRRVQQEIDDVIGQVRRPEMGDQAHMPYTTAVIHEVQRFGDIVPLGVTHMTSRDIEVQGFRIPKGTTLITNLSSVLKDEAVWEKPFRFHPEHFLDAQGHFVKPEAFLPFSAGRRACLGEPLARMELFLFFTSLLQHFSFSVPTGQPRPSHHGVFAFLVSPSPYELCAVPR

cells = format: functional
Vero = experiment: cells; format: functional; conditions: Chlorocebus sabaeus

COC(=O)c1ccc(N2CCN(C)CC2)c(NC(=O)c2cccs2)c1
EC50 [1]: 2.11 µM (active)

Oc1ccc(Cl)cc1/N=C/c1c[nH]nc1O
IC50 [2]: 30 µM (active)
IC50 (Aminopeptidase N): 14.3 µM (active)

Cn1cccc1C(=O)N1CCC2(CC1)CN(C(c1ccccc1)c1ccccc1)C2
AC50 (Cytochrome P450 3A4): inconclusive
AC50 (Cytochrome P450 1A2): 31.6 µM (inconclusive)
AC50 (Cytochrome P450 2C9): 39.8 µM (inconclusive)

CC(C)(C)C(=O)NC(=S)NNC(=O)c1sc2ccccc2c1Cl
CC50 [3]: 6.74 µM (active)
EC50 [4]: 3.06 µM (active)
EC50 [5]: 2.54 µM (inconclusive)
AC50 [6]: 12.1 µM (active)
AC50 [7]: 1.54 µM (active)
EC50 [1]: 0.267 µM (active)
EC50 [8]: 1.35 µM (active)
AC50 [9]: 19.1 µM (active)
AC50 [10]: 3.26 µM (active)

Cc1ccc(/C=C2\SC(=S)N(C3CCS(=O)(=O)C3)C2=O)o1 (centres undefined)
CC50 [11]: > 40 µM (active)

CCN1CCN(c2c(Cl)cccc2NC(=O)c2ccc3nsnc3c2)CC1
EC50 [1]: 0.668 µM (active)

COC(=O)N1CCC2(CC1)CCN(c1ccccc1)CC2
AC50 (Cytochrome P450 3A4): inconclusive
AC50 (Cytochrome P450 2C19): 5.01 µM (inconclusive)

O=C(O)/C(=C\c1ccccc1)Cc1ccccc1
AC50 (Cytochrome P450 3A4): inconclusive
AC50 (Cytochrome P450 2C9): 3.98 µM (inconclusive)

O=C(Oc1ccccc1)N1CCC2(CC1)CN(c1ccccn1)C2
AC50 (Cytochrome P450 3A4): inconclusive

CCN(CC)S(=O)(=O)c1ccc2c(c1)c(=O)c(C(=O)NCc1ccco1)cn2C
EC50 [4]: > 195 µM (not active)
IC50 (Prothrombin): 2.14 µM (active)

COCC(=O)N1CCC2(CC1)CCN(C(c1ccccc1)c1ccccc1)CC2
AC50 (Cytochrome P450 3A4): inconclusive

O=C(c1ccco1)N1CCC2(CC1)CN(c1ccccn1)C2
AC50 (Cytochrome P450 3A4): inconclusive
AC50 (Cytochrome P450 2D6): 15.8 µM (inconclusive)

Clc1ccc(Cl)c(OCCCCNCc2ccccc2)c1
CC50 [11]: 38.1 µM (active)
IC50 (cells): 36.9 µM (active)

Clc1ccc(OCCCNCc2ccccc2)c2ccccc12
CC50 [11]: 23.6 µM (active)
IC50 (cells): 12.2 µM (active)
CC50 (Vero): > 25 µM (active)

CN(C)CCNc1nc(S(=O)(=O)c2ccccc2)c(Cl)s1
IC50 (Aminopeptidase N): 51.9 µM (active)

Cc1ccc(OCC(=O)N2CCN(C(=O)CCC3CCCC3)CC2)cc1
IC50 (Aminopeptidase N): 57.3 µM (active)
